Read-outs that look alike come from different tables or passages of the source.
Legend:
MeWo cells [1] = assay: Preliminary annexin V-FITC assay (Example 7); format: cell-based; settings: 6-hour treatment, preliminary screen
Method: (§1) MeWo (ATCC® HTB-65™) and WM115 (ATCC® CRL-1675) cells were purchased from ATCC (Manassas, Va.) and maintained in the following: for MeWo:DMEM supplemented with 10% FBS; for WM115: RPMI 1640 supplemented with 10% FBS (10% FBS, 1% stabilized antibiotic anti-mycotic solution).
(§2) During the first set of studies, both MeWo and WM115 cells were treated with test compounds at 10 doses starting from 100 μM with 3-fold dilution. Staurosporine was used as positive control. After 6-hour treatment, cell apoptosis was assessed using an annexin V assay. The test compounds evaluated were CV-8684, CV-8685, CV-8686, CV-8687, and CV-8688.
(§3) For cell seeding, cells were harvested and the cell number was determined using Countess® cell counter. Cells were then diluted with culture medium to the desired density. 40 μL of cell suspension per well was added to the required number of wells in a 384-well plate (Corning 3712—clear bottom plate). The final cell density was 6,000 cells/well. After plating, the plates were incubated at 37° C., and 5% CO2 overnight.
(§4) For preparation of compound source plate, each test compound was dissolved in DMSO to 10 mM stock. 3-fold serial dilution was performed using an EVO200™ liquid handler (TECAN) to generate ten concentrations of test compound. 0.1% DMSO was employed as vehicle (negative) control. The compound source plate was then spun at room temperature at 1,000 RPM for 1 minute and agitated using a plate shaker for 2 minutes.
(§5) For compound treatment, 40 nL of compound were transferred from the compound source plate to the 384-well culture plate using liquid handler Echo550 (LabCyte Inc.). After 6-hour incubation, the plates were removed from the incubator for detection.
(§6) For the preliminary annexin V assay, the plates were removed from the incubator and allowed to equilibrate at room temperature for 15 minutes. Culture media was then removed. 20 μL of pre-mixed annexin V-FITC and Hoechst33342 dye working solution were added to each well. The cells were then incubated at room temperature for 20 minutes. […] Afterward, the plate was read using an Acumen eX3 plate reader. The relative activity was calculated according to the following formula: Activity (%)=100%×(CountAnnexin V/CountTotal cell), and EC50 was calculated using GraphPad Prism (v. 5.01).

WM115 cells [2] = assay: Preliminary annexin V-FITC assay (Example 7); format: cell-based; settings: 6-hour treatment, preliminary screen
Method: as §1, §2, §3, §4, §5, §6

[3] = CellTiter-Glo cell viability assay (Example 9); format: cell-based; settings: human; after 24-hour treatment; read-out: inhibition of cell viability
Method: (§7) CellTiter-Glo® 2.0 assay was purchased from Promega. Cell seeding, preparation of the compound source plate, and exposure of cells to test compounds were performed as described in Example 8.
(§8) CellTiter-Glo® reagents were thawed and equilibrated to room temperature before the experiment. 40 μL of CellTiter-Glo® reagent was then added to each well for detection (at 1:1 ratio to culture medium). The plates were then incubated at room temperature for 30 minutes and read using EnSpire (PerkinElmer) plate reader. The remaining activity was calculated according to the following formula: Remaining Activity (%)=100%×(Lumsample−Lumbkg)/(Lumvehicle−Lumbkg).

[4] = CellTiter-Glo cell viability assay (Example 9); format: cell-based; settings: human; after 24-hour treatment; read-out: inhibition of cell viability; remark: listed apart in the source
Method: as §7, §8

MeWo cells [5] = assay: Cell morphology after treatment (Example 6); format: cell-based; settings: 100 μM, 6 hours
WM115 cells [6] = assay: Cell morphology after treatment (Example 6); format: cell-based; settings: 100 μM, 6 hours
MelanoDerm™ Skin Model [7] = assay: MelanoDerm Study 1, MTT tissue viability (Example 19); format: cell-based, human; settings: 200 μM compared to 50 μM
Source text: Treatments were as follows: 7-days of treatment in alternate days (7TD); 7-days of treatment in alternate days followed by 7-days without treatment (recovery) (7TD+7NTD); and 14-days of treatment in alternate days (14TD). The study also evaluated the potential dermal irritation induced by each test article as measured by the conversion of MTT by MelanoDerm™ tissues after repeated exposures to the test articles, over the treatment periods specified in the protocol.
(Berridge et al., 1996). The toxicity of the test articles to the tissue, which is evidence for potential dermal irritation, was determined by measuring the relative survival—the MTT conversion relative to the negative control-treated tissues.
The test articles, CV-8686 and AB11644, were provided as stock solutions (˜100 mM each) in DMSO. The test articles were administered to the test system as a 50 μM and 200 μM dilution in sterile, EPI-100-LLMM. Test article DMSO (vehicle control) was administered to the test system as a 0.2% dilution in sterile, EPI-100-LLMM.
The test articles were each prepared using the procedure as follows: starting from the stock concentrations provided, 2 μl of each test article were first diluted with the appropriate volume of EPI-100-LLMM to a final concentration of 200 μM. […]

[8] = target: T1, arylhydrocarbon receptor (AhR) (Homo sapiens, UniProt P35869); assay: HepG2-AhR-Luciferase assay; settings: EC50 (uM), 24 hours of treatment
T1 sequence (P35869 11-848): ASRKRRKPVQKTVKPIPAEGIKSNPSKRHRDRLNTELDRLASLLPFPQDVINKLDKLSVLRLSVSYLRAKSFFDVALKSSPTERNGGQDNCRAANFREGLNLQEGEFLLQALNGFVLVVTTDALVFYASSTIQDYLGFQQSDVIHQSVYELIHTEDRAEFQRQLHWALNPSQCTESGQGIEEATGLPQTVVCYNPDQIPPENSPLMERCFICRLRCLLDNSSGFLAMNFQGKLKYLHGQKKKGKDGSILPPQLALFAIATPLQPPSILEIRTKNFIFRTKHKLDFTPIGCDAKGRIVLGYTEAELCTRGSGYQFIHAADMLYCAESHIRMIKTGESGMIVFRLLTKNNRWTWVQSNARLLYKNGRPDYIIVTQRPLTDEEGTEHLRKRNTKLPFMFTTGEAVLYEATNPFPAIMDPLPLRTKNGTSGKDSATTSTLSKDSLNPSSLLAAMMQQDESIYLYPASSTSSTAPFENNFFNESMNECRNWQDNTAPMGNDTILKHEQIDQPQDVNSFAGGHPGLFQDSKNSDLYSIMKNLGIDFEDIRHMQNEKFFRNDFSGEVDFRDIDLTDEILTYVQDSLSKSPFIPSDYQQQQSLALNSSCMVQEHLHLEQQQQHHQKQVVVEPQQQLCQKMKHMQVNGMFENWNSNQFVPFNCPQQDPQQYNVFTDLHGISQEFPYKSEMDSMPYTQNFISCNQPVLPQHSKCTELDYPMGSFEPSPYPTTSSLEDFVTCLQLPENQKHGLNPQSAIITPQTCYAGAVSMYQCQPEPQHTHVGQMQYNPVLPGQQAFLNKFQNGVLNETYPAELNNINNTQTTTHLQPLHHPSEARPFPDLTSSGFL
Method: HepG2-AhR-Luc cells were purchased from Pharmaron, One-Glo Luciferase assay system was purchased from Promega. DMEM was purchased from Hyclone, and penicillin/streptomycin was purchased from Solabio.
Culture media for stably transfected HepG2 cells was prepared by supplementing DMEM with high glucose and L-glutamine, as well as 10% FBS.
HepG2-AhR-Luc cells were cultured in T-75 flasks at 37° C., 5% CO2, and 95% relative humidity. Cells were allowed to reach 80-90% confluence before detachment and splitting.
Cultivated cells were rinsed with 5 mL PBS. PBS was aspirated away, 1.5 mL trypsin was added to the flask, and cells were incubated at 37° C. for approximately 5 minutes or until the cells detached and floated. Trypsin was inactivated by adding excess serum-containing media.
The cell suspension was transferred to a conical tube and centrifuged at 120 g for 10 minutes to pellet the cells. Cells were resuspended in seeding media at a proper density. 40 μL of cells were transferred to a 384-well culture plate (5×10^3 cells/well). Plates were placed in the incubator at 37° C. for 24 hours.
Afterward, stock solutions of test compounds and omeprazole positive control were prepared. Compound solutions were transferred into the assay plate using Echo550. The plate was then placed back into the incubator for compound treatment.
Later, after 24 hours of treatment, the plate was removed from the incubator and allowed to cool at ambient temperature. 30 μL One-Glo reagent equal to that of the culture medium was added in each well. Cells were allowed to lyse for at least 3 minutes, and then measured in a luminometer.
Dose responses were graphed using the non-linear regression analysis in XLfit and EC50 values were also calculated.

MelanoDerm™ Skin Model [9] = assay: MelanoDerm Study 2, melanin assay (Example 19); format: cell-based, human; settings: 500 μM, 7-day period
Method: The study also evaluated the potential dermal irritation induced by each test article as measured by the conversion of MTT by MelanoDerm™ tissues after repeated exposures to the test articles, over the 7 day treatment period.
The test articles, Malassezin (CV-8684), Compound B (CV-8877), Compound E (AB12508), Compound H (AB12509), an unknown composition, Compound A5 (CV-8819), and 052 (AB12976), were prepared by diluting the stock concentrations with EPI-100-LLMM to final concentrations of 200 μM and 500 μM. The test article, Compound I (CV-8686), was prepared by diluting the stock concentration to 500 μM. All of the dilutions were vortexed for at least 1 minute, and then heated in a water bath at 37°±1° C. for 15 minutes. The dilutions were then vortexed again for at least 1 minute prior to being dosed on the tissues. The test article and solvent control, DMSO, was prepared as a 0.5% (v/v) dilution in EPI-100-LLMM. The test article dilution was vortexed for at least 1 minute and then again for at least 1 minute prior to being applied onto the tissues. […]
The raw absorbance data were captured. The OD490 value of each melanin standard was determined. […] The corrected OD490 value of each melanin standard concentration was determined by subtracting the OD490 value of the blank well from the OD490 value of the melanin standard concentration. […]

yeast model = settings: cited from earlier work

Structure (SMILES)	viability of the tissues, dose response (MelanoDerm™ Skin Model [7])	EC50 ([8]; Table 2) [µM]	melanin concentration (MelanoDerm™ Skin Model [9]) [µg/mL]	EC50 ([8]; Table 1) [µM]	also measured
CN[C@@H]1C[C@H]2O[C@@](C)([C@@H]1OC)n1c3ccccc3c3c4c(c5c6ccccc6n2c5c31)C(=O)NC4 [Staurosporine, reference compound]	–	–	–	–	annexin V staining (MeWo cells [1]): greatly increased annexin V staining; annexin V staining (WM115 cells [2]): greatly increased annexin V staining; cytotoxicity at 24 h [3]: 100%; cytotoxicity at 24 h [4]: 100%; cell morphology (MeWo cells [5]): significantly affected; cell morphology (WM115 cells [6]): significantly affected
c1ccc2c(C(c3c[nH]c4ccccc34)C3CC3)c[nH]c2c1 [AB11644]	slightly lower viability	14.9	–	–	–
O=Cc1c(C(c2c[nH]c3ccccc23)C2CC2)[nH]c2ccccc12 (stereo not shown) [AB12508]	–	14.2	25.26	15.4	–
COC(=O)c1c(C(C)c2c[nH]c3ccccc23)[nH]c2ccccc12 (stereo not shown) [Compound B (CV-8877)]	–	13.8	25.99	–	–
Cc1ccc2c(Cc3[nH]c4ccccc4c3C=O)c[nH]c2c1 [CV-8686]	slightly lower viability	–	–	3.17	–
O=C1OC(c2c[nH]c3ccccc23)=C(c2c[nH]c3ccccc23)C1=O [pityrialactone, Pityrialactone]	–	–	–	–	UV protective properties (yeast model): confirmed

Reference: US11220491B2, “Photoprotective compositions containing Malassezia-derived compounds and/or chemical analogs thereof” (Versicolor Technologies, LLC, priority 2018, dated 2022)
